Data taken from US20140121407A1, “DEUTERATED PHENYLPROPIONIC ACID DERIVATIVE” (RESEARCH FOUNDATION ITSUU LABORATORY, priority 2011, published 2014).
Like-named read-outs stand apart in the source and are kept apart here.

Assay: In vivo kinetic parameters in mouse after oral administration (plasma, LC/MS)
Settings: for half-life: read-out: t½ (converted)
Method: 6-Week old ddY male mice were starved for 12 hours, and then used for the experiment. To the mice, Am80 (3.30 mg/kg), 3-[4-[(5,6,7,8-tetrahydro-5,5,8,8-tetramethyl-2-naphthalenyl)carbamoyl]phenyl]propionic acid (protium compound, M700, 3.56 mg/kg), or 3-[4-[(5,6,7,8-tetrahydro-5,5,8,8-tetramethyl-2-naphthalenyl)carbamoyl]phenyl]propionic acid-2,2,3,3-d4 (deuterated propionic acid derivative, Y616, 3.60 mg/kg) was orally administered (the dose in terms of molar amount was 9.4 μmol/kg for all the compounds). A 94 mM solution of each compound in DMSO was prepared, and suspended in 0.5% methylcellulose so as to be diluted 100 times, and the suspension was orally administered at a dose of 10 ml/kg by using a 1-ml syringe and a catheter for oral administration.
After 15 minutes, 30 minutes, 1 hour, 2 hours, 3 hours, 6 hours, 12 hours, and 24 hours from the administration of each compound, whole blood was collected from the mouse abdominal aorta under diethyl ether anesthesia by using a heparin-treated glass syringe and a 26G hypodermic needle (five mice were used for each compound). The collected blood was centrifuged at 13,700×g and 4° C. for 5 minutes to separate the plasma, and the separated plasma was stored at −30° C.
The plasma (100 μL) was put into a 1.5-ml tube, and added with ethyl acetate (400 μl), the mixture was stirred, ultrasonicated for 1 minute, and centrifuged at 13,700×g and 20° C. for 3 minutes, and the supernatant was collected. The residue was added with ethyl acetate (400 μl), and the mixture was subjected once again to the aforementioned procedure. The collected supernatant was put into a 1.5-ml tube in an appropriate volume, and dried with nitrogen gas. The residue was dissolved in methanol (100 μl) to obtain a sample for LC/MS.
All the samples were used for […] in a volume of 5 μl. The LC/MS apparatus used was constituted with Waters 2695 Separations Module (Nihon Waters) and 3100 Mass Detector (Nihon Waters). Each compound was quantified by the absolute calibration curve method.

[1] = Administration of M700, 3.56 mg/kg (9.4 μmol/kg) oral, ddY male mice, plasma, label = analyte measured
[2] = mouse, 3.3 mg/kg, Administration of AM80, 3.30 mg/kg (9.4 μmol/kg) oral, ddY male mice, plasma
[3] = mouse, 3.6 mg/kg, Administration of Y616, 3.60 mg/kg (9.4 μmol/kg) oral, ddY male mice, plasma, label = analyte measured
[4] = mouse, 3.6 mg/kg, Administration of Y616, 3.60 mg/kg (9.4 μmol/kg) oral, ddY male mice, plasma, label = analyte measured, read-out: AUC
[5] = mouse, 3.6 mg/kg, Administration of Y616, 3.60 mg/kg (9.4 μmol/kg) oral, ddY male mice, plasma, label = analyte measured, read-out: Tmax
[6] = mouse, Administration of M700, 3.56 mg/kg (9.4 μmol/kg) oral, ddY male mice, plasma, label = analyte measured
[7] = mouse, Administration of M700, 3.56 mg/kg (9.4 μmol/kg) oral, ddY male mice, plasma, label = analyte measured, read-out: AUC
[8] = mouse, Administration of M700, 3.56 mg/kg (9.4 μmol/kg) oral, ddY male mice, plasma, label = analyte measured, read-out: Tmax
[9] = oral, mouse, after administration of the labelled prodrug
[10] = oral, mouse, compared with the protium compound

Compound	Cmax [3] [nM]	AUC [4] [µM·h]	Tmax [5] [min]	half-life [3] [min]	Cmax [6] [nM]	AUC [7] [µM·h]	Tmax [8] [min]	half-life [6] [min]	further results
4-[(5,6,7,8-tetrahydro-5,5,8,8-tetramethyl-2-naphthalenyl)carbamoyl]phenylcinnamic acid [Example M700-M1]	–	–	–	–	–	–	–	–	AUC [1]: 0.54 µM·h; Cmax [1]: 710 nM; Tmax [1]: 30 min; t½ [1]: 28.2 min
CC1(C)CCC(C)(C)c2cc(NC(=O)c3ccc(C(=O)O)cc3)ccc21 [Am80, 4-[(5,6,7,8-tetrahydro-5,5,8,8-tetramethyl-2-naphthalenyl)carbamoyl]benzoic acid]	930	3.48	60	133	1060	2.74	60	73.2	Cmax [2]: 1870 nM; AUC (mouse, 3.3 mg/kg, Administration of AM80, 3.30 mg/kg (9.4 μmol/kg) oral, ddY male mice, plasma, read-out: AUC): 2.8 µM·h; Tmax (mouse, 3.3 mg/kg, Administration of AM80, 3.30 mg/kg (9.4 μmol/kg) oral, ddY male mice, plasma, read-out: Tmax): 30 min; half-life [2]: 48.6 min
CC1(C)CCC(C)(C)c2cc(NC(=O)c3ccc(CCC(=O)O)cc3)ccc21 [Example M700, 3-[4-[(5,6,7,8-tetrahydro-5,5,8,8-tetramethyl-2-naphthalenyl)carbamoyl]phenyl]propionic acid]	–	–	–	–	1620	1.32	30	28.2	–
CC1(C)CCC(C)(C)c2cc(NC(=O)c3ccc(C(O)CC(=O)O)cc3)ccc21 (centres unmarked) [Example M700-M2, 3-[4-[(5,6,7,8-tetrahydro-5,5,8,8-tetramethyl-2-naphthalenyl)carbamoyl]phenyl]-3-hydroxypropionic acid]	–	–	–	–	20	0.02	30	25.8	–
[2H]C([2H])(C(=O)O)C([2H])([2H])c1ccc(C(=O)Nc2ccc3c(c2)C(C)(C)CCC3(C)C)cc1 [Example Y616, 3-[4-[(5,6,7,8-tetrahydro-5,5,8,8-tetramethyl-2-naphthalenyl)carbamoyl]phenyl]propionic acid-2,2,3,3-d4]	1370	1.95	30	49.8	–	–	–	–	metabolic intermediate M1 generated [9]: markedly decreased; metabolic intermediate M2 generated [9]: not observed; AUC of the prodrug [10]: increased; half-life (t½) of the prodrug [10]: extended
